Tests used:
Assay type in all cases: cell-based
PC12 cells [1] = experiment: Serum starvation-induced apoptosis in PC12 cells, cell viability; conditions: Rattus norvegicus
PC12 cells [2] = experiment: Etoposide-induced apoptosis in PC12 cells, cell viability
PC12 cells [3] = experiment: ROS in PC12 cells, CellROX green / DAPI staining after H2O2; conditions: 400 μM H2O2 for 4 hours, FIG. 5A
Protocol: PC12 cells stained with CellROX and DAPI-blue nuclear stain. Greater intensity of green fluorescence indicates greater levels of ROS. Visualized through a microscope (40× magnification, bar=100 μM).
While flupirtine and retigabine are known antioxidants the inventors have shown (FIGS. 5A and 5B) that neuroprotective derivatives operate by a different mechanism of action. […] PC12 cells stained with CellROX and DAPI-blue nuclear stain. Greater intensity of green fluorescence indicates greater levels of ROS. Visualized through a microscope (40× magnification, bar=100 μM).

[4] = PC-12, 1 μM compound, serum starvation-induced apoptosis, PC12 cells, vehicle 55.04 ± 8.99, read-out: % Viability 1 μM
[5] = PC-12, 3 μM compound, serum starvation-induced apoptosis, PC12 cells, read-out: % Viability 3 μM
[6] = PC-12, 10 μM compound, serum starvation-induced apoptosis, PC12 cells, read-out: % Viability 10 μM
[7] = PC-12, 30 μM compound, serum starvation-induced apoptosis, PC12 cells, read-out: % Viability 30 μM
[8] = Rattus norvegicus, PC-12, 1 μM compound, etoposide-induced apoptosis, PC12 cells, read-out: % Viability 1 μM
[9] = Rattus norvegicus, PC-12, 3 μM compound, etoposide-induced apoptosis, PC12 cells, read-out: % Viability 3 μM
[10] = Rattus norvegicus, PC-12, 10 μM compound, etoposide-induced apoptosis, PC12 cells, read-out: % Viability 10 μM
[11] = Rattus norvegicus, PC-12, 30 μM compound, etoposide-induced apoptosis, PC12 cells, read-out: % Viability 30 μM

CCOC(=O)Nc1ccc(NCc2cc(C(F)(F)F)cc(C(F)(F)F)c2)nc1N [NK-17-3, Ethyl (2-amino-6-((3,5-bis(trifluoromethyl)benzyl)amino)pyridin-3-yl)carbamate]
viability at 1 µM (PC12 cells [1]; [4]): 81.8 ± 8.69%
viability at 3 µM (PC12 cells [1]; [5]): 72.8 ± 12.4%
viability at 10 µM (PC12 cells [1]; [6]): 78.5 ± 6.27%
viability at 30 µM (PC12 cells [1]; [7]): 57.9 ± 9.54%
viability at 1 µM (PC12 cells [2]; [8]): 63.7 ± 22.7%
viability at 3 µM (PC12 cells [2]; [9]): 75.7 ± 6.39%
viability at 10 µM (PC12 cells [2]; [10]): 68.1 ± 9.52%
viability at 30 µM (PC12 cells [2]; [11]): 56 ± 6.26%

CCOC(=O)Nc1ccc(NCc2ccc(F)cc2)cc1N [NK-22-13, Ethyl (2-amino-4-((4-fluorobenzyl)amino)phenyl)carbamate, reference compound]
amelioration of reactive oxygen species (ROS) (PC12 cells [3]): do ameliorate ROS
viability at 1 µM (PC12 cells [1]; PC-12, read-out: % Viability 1 μM): 75.9 ± 15%
viability at 3 µM (PC12 cells [1]; PC-12, read-out: % Viability 3 μM): 77.9 ± 22.6%
viability at 10 µM (PC12 cells [1]; PC-12, read-out: % Viability 10 μM): 85.8 ± 17.9%
viability at 30 µM (PC12 cells [1]; PC-12, read-out: % Viability 30 μM): 76.2 ± 25%
viability at 1 µM (PC12 cells [2]; Rattus norvegicus, PC-12, read-out: % Viability 1 μM): 58.3 ± 2.86%
viability at 3 µM (PC12 cells [2]; Rattus norvegicus, PC-12, read-out: % Viability 3 μM): 73.9 ± 13.9%
viability at 10 µM (PC12 cells [2]; Rattus norvegicus, PC-12, read-out: % Viability 10 μM): 66.3 ± 17.6%
viability at 30 µM (PC12 cells [2]; Rattus norvegicus, PC-12, read-out: % Viability 30 μM): 52.1 ± 7.62%

CC(Cl)OC(=O)Nc1ccc(NCc2ccc(F)cc2)nc1N (stereo not drawn) [NK-21-1, 1-chloroethyl 6-(4-fluorobenzylamino)-2-aminopyridin-3-ylcarbamate]
viability at 1 µM (PC12 cells [1]; [4]): 74.2 ± 11.5%
viability at 3 µM (PC12 cells [1]; [5]): 75.6 ± 13.4%
viability at 10 µM (PC12 cells [1]; [6]): 91.7 ± 6.31%
viability at 30 µM (PC12 cells [1]; [7]): 84 ± 13.8%
viability at 1 µM (PC12 cells [2]; [8]): 69.5 ± 13.2%
viability at 3 µM (PC12 cells [2]; [9]): 88.9 ± 21.5%
viability at 10 µM (PC12 cells [2]; [10]): 84.3 ± 32.2%
viability at 30 µM (PC12 cells [2]; [11]): 84.8 ± 33.7%

CCCOC(=O)Nc1ccc(NCc2ccc(F)cc2)cc1N [NK-30-2, Propyl (2-amino-4-((4-fluorobenzyl)amino)phenyl)carbamate]
viability at 1 µM (PC12 cells [1]; [4]): 70.4 ± 3.39%
viability at 3 µM (PC12 cells [1]; [5]): 78.3 ± 7.18%
viability at 10 µM (PC12 cells [1]; [6]): 84.6 ± 4.75%
viability at 30 µM (PC12 cells [1]; [7]): 76.2 ± 1.61%
viability at 1 µM (PC12 cells [2]; [8]): 54.1 ± 9.34%
viability at 3 µM (PC12 cells [2]; [9]): 55.6 ± 7.41%
viability at 10 µM (PC12 cells [2]; [10]): 61.6 ± 4.82%
viability at 30 µM (PC12 cells [2]; [11]): 61.6 ± 18.1%

CCOC(=O)Nc1ccc(NCc2ccc(C)cc2)cc1N [JG-32-3, Ethyl (2-amino-4-((4-methylbenzyl)amino)phenyl)carbamate]
viability at 1 µM (PC12 cells [1]; [4]): 62.6 ± 16.7%
viability at 3 µM (PC12 cells [1]; [5]): 79.54 ± 0.6%
viability at 10 µM (PC12 cells [1]; [6]): 77.9 ± 1.34%
viability at 30 µM (PC12 cells [1]; [7]): 71.33 ± 0.03%
viability at 1 µM (PC12 cells [2]; [8]): 110 ± 39.4%
viability at 3 µM (PC12 cells [2]; [9]): 136 ± 30.1%
viability at 10 µM (PC12 cells [2]; [10]): 123 ± 23.2%
viability at 30 µM (PC12 cells [2]; [11]): 98 ± 22.9%
protective activity in WT PC12 etoposide assay (PC12 cells [2]; WT PC12 cells, etoposide): significant increase in potency

COC(=O)Nc1ccc(NCc2ccc(F)cc2)nc1N [NK-3-1, Methyl 6-(4-fluorobenzylamino)-2-aminopyridin-3-ylcarbamate]
viability at 1 µM (PC12 cells [1]; [4]): 76.9 ± 10.2%
viability at 3 µM (PC12 cells [1]; [5]): 79.1 ± 8.28%
viability at 10 µM (PC12 cells [1]; [6]): 72.2 ± 9.15%
viability at 30 µM (PC12 cells [1]; [7]): 72.3 ± 16.4%
viability at 1 µM (PC12 cells [2]; [8]): 74.5 ± 33.1%
viability at 3 µM (PC12 cells [2]; [9]): 96.6 ± 14.6%
viability at 10 µM (PC12 cells [2]; [10]): 82.2 ± 23.4%
viability at 30 µM (PC12 cells [2]; [11]): 63.3 ± 27.4%

Cc1ccc(OC(=O)Nc2ccc(NCc3ccc(F)cc3)cc2N)cc1 [JG-48-6, p-tolyl (2-amino-4-((4-fluorobenzyl)amino)phenyl)carbamate]
viability at 1 µM (PC12 cells [2]; [8]): 70 ± 16.1%
viability at 3 µM (PC12 cells [2]; [9]): 91.6 ± 11%
viability at 10 µM (PC12 cells [2]; [10]): 83.7 ± 2.26%
viability at 30 µM (PC12 cells [2]; [11]): 67.5 ± 10.2%

Nc1nc(NCc2ccc(F)cc2)ccc1NC(=O)Oc1ccccc1 [NK-41-1, Phenyl (2-amino-6-((4-fluorobenzyl)amino)pyridin-3-yl)carbamate]
viability at 0.1 µM (PC12 cells [2]; Rattus norvegicus, PC-12, 0.1 μM compound, etoposide-induced apoptosis, PC12 cells, vehicle 52.1 ± 7.32): 57.5 ± 3.62%
viability at 0.3 µM (PC12 cells [2]; Rattus norvegicus, PC-12, 0.3 μM compound, etoposide-induced apoptosis, PC12 cells): 53.4 ± 0.8%
viability at 1 µM (PC12 cells [2]; [8]): 58.1 ± 2.08%
viability at 3 µM (PC12 cells [2]; [9]): 59 ± 6.87%
viability at 10 µM (PC12 cells [2]; [10]): 68.9 ± 7.71%
viability at 30 µM (PC12 cells [2]; [11]): 70.3 ± 10.6%
